The values below come from US11111220B2, “Propanamine derivatives for treating pain and pain related conditions” (ESTEVE PHARMACEUTICALS, S.A., priority 2017, dated 2021).

Chain of Human α2δ-1 Subunit of Cav2.2 Calcium Channel (P54289 25-1103): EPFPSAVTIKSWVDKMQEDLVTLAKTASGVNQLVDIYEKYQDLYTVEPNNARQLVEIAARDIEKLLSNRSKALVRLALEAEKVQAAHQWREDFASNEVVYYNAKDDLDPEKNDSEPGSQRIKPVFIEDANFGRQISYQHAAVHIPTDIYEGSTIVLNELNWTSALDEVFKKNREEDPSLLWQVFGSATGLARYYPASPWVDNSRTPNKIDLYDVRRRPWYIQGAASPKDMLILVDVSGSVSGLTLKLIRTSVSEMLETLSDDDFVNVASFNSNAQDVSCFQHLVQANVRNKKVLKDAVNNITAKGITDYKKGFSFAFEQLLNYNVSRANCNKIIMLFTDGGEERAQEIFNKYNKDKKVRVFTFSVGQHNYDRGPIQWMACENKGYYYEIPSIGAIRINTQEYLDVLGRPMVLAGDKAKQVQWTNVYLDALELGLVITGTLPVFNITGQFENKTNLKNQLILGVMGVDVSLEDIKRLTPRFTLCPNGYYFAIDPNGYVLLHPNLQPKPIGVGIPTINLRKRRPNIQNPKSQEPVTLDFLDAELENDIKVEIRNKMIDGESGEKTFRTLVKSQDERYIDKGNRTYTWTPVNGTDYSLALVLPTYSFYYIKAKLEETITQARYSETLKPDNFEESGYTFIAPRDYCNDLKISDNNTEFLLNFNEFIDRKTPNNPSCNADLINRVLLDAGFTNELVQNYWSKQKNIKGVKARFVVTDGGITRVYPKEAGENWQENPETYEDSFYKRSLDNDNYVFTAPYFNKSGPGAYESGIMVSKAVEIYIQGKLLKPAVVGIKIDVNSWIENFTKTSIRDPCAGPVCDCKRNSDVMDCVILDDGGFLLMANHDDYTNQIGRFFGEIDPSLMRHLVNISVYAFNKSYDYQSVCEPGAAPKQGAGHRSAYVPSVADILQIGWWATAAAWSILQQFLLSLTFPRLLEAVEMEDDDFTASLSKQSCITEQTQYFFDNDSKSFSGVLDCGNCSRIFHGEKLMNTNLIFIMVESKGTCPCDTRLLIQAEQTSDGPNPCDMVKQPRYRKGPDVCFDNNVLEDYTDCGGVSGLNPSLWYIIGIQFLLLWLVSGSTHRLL

This assay has as its target Human α2δ-1 Subunit of Cav2.2 Calcium Channel (Homo sapiens, UniProt P54289). The assay can be described thus: Binding assay to human α2δ-1 subunit of Cav2.2 calcium channel ([3H]-Gabapentin). As to conditions: Table 1; human α2δ-1 enriched membranes, 15 nM [3H]-Gabapentin; read-out: Ki(nM) alpha2delta Hum. The protocol: Binding Assay to Human α2δ-1 Subunit of Cav2.2 Calcium Channel.
Human α2δ-1 enriched membranes (2.5 μg) were incubated with 15 nM of radiolabeled [3H]-Gabapentin in assay buffer containing Hepes-KOH 10 mM, pH 7.4.
NSB (non specific binding) was measured by adding 10 μM pregabalin. The binding of the test compound was measured in five different concentrations. After 60 min incubation at 27° C., binding reaction was terminated by filtering through Multiscreen GF/C (Millipore) presoaked in 0.5% polyethyleneimine in Vacuum Manifold Station, followed by 3 washes with ice-cold filtration buffer containing 50 mM Tris-HCl, pH 7.4.
Filter plates were dried at 60° C. for 1 hour and 30 μl of scintillation cocktail were added to each well before radioactivity reading.
Readings were performed in a Trilux 1450 Microbeta radioactive counter (Perkin Elmer).
Turning to `CCN(Cc1ccccc1)Cc1cccc(OC(CCNC)c2cccs2)c1` (stereo not drawn) [Example 1, 3-(3-((Benzyl(ethyl)amino)methyl)phenoxy)-N-methyl-3-(thiophen-2-yl)propan-1-amine], the Ki is 100 to 500 nM. As for `CNCCC(Oc1cccc(CNC)c1)c1cccs1` (stereo not drawn) [Example 3, N-methyl-3-(3-((methylamino)methyl)phenoxy)-3-(thiophen-2-yl)propan-1-amine], the Ki lay in the range of 100 to 500 nM. Turning to `CNCCC(Oc1cccc(CN(C)C)c1)c1cccs1` (stereo not drawn) [Example 4, 3-(3-((Dimethylamino)methyl)phenoxy)-N-methyl-3-(thiophen-2-yl)propan-1-amine], the Ki is 100 to 500 nM.

Regarding `CCNCc1cccc(OC(CCNC)c2cccs2)c1` (stereo not drawn) [Example 5, 3-(3-((Ethylamino)methyl)phenoxy)-N-methyl-3-(thiophen-2-yl)propan-1-amine], the Ki lay within 100 to 500 nM. Regarding `CNCCC(Oc1cccc(C(=O)NCc2ccccn2)c1)c1cccs1` (stereo not drawn) [Example 7, 3-(3-(Methylamino)-1-(thiophen-2-yl)propoxy)-N-(pyridin-2-ylmethyl)benzamide], the Ki is ≥ 3000 nM. For the compound `CNCCC(Oc1cccc(C(=O)Nc2cccnc2)c1)c1cccs1` (stereo not drawn) [Example 8, 3-(3-(Methylamino)-1-(thiophen-2-yl)propoxy)-N-(pyridin-3-yl)benzamide], the Ki was in the range of 500 to 3000 nM. As for `CNCCC(Oc1cccc(C(=O)Nc2cccc(-c3nnc(C)o3)c2)c1)c1cccs1` (stereo not drawn) [Example 9, N-(3-(5-methyl-1,3,4-oxadiazol-2-yl)phenyl)-3-(3-(methylamino)-1-(thiophen-2-yl)propoxy)benzamide], the Ki lay within 500 to 3000 nM. Take `CNCCC(Oc1cccc(C(=O)NCc2ccccc2)c1)c1cccs1` (stereo not drawn) [Example 10, N-benzyl-3-(3-(methylamino)-1-(thiophen-2-yl)propoxy)benzamide]: the Ki lay in the range of 500 to 3000 nM.

Regarding `CNCCC(Oc1cccc(C(=O)Nc2ccccc2CN(C)C)c1)c1cccs1` (stereo not drawn) [Example 11, N-(2-((dimethylamino)methyl)phenyl)-3-(3-(methylamino)-1-(thiophen-2-yl)propoxy)benzamide], the Ki lay in the range of 500 to 3000 nM. With `CNCCC(Oc1cccc(C(=O)Nc2ccccc2N(C)C)c1)c1cccs1` (stereo not drawn) [Example 12, N-(2-(dimethylamino)phenyl)-3-(3-(methylamino)-1-(thiophen-2-yl)propoxy)benzamide], the Ki was 500 to 3000 nM. For `CNCCC(Oc1cccc(C(=O)NC)c1)c1ccccc1` (stereo not drawn) [Example 16, N-methyl-3-(3-(methylamino)-1-phenylpropoxy)benzamide], the Ki was ≥ 3000 nM. The same measure for `CCNC(=O)c1cccc(OC(CCNC)c2ccccc2)c1` (stereo not drawn) [Example 19, N-ethyl-3-(3-(methylamino)-1-phenylpropoxy)benzamide]: ≥ 3000 nM. For the compound `CCNc1ccc(NC(=O)c2cccc(OC(CCNC)c3ccccc3)c2)cn1` (stereo not drawn) [Example 21, N-(6-(ethylamino)pyridin-3-yl)-3-(3-(methylamino)-1-phenylpropoxy)benzamide], the Ki is ≥ 3000 nM.

`CNCCC(Oc1cccc(N(C)C(=O)c2ccccc2)c1)c1ccccc1` (stereo not drawn) [Example 23, N-methyl-N-(3-(3-(methylamino)-1-phenylpropoxy)phenyl) benzamide]: the Ki is ≥ 3000 nM. As to `CNCCC(Oc1cccc(N(C)C(C)=O)c1)c1ccccc1` (stereo not drawn) [Example 24, N-methyl-N-(3-(3-(methylamino)-1-phenylpropoxy)phenyl)acetamide], the Ki was ≥ 3000 nM. For `CCCC(=O)N(C)c1cccc(OC(CCNC)c2ccccc2)c1` (stereo not drawn) [Example 25, N-methyl-N-(3-(3-(methylamino)-1-phenylpropoxy)phenyl)butyramide], the Ki was ≥ 3000 nM. For the compound `CNCCC(Oc1cccc(N(C)C(=O)c2cccnc2)c1)c1ccccc1` (stereo not drawn) [Example 26, N-methyl-N-(3-(3-(methylamino)-1-phenylpropoxy)phenyl)nicotinamide], the Ki was ≥ 3000 nM. In the case of `CCNc1ncc(C(=O)N(C)c2cccc(OC(CCNC)c3ccccc3)c2)c(N2CCCC2)n1` (stereo not drawn) [Example 29, 2-(Ethylamino)-N-methyl-N-(3-(3-(methylamino)-1-phenylpropoxy)phenyl)-4-(pyrrolidin-1-yl)pyrimidine-5-carboxamide], the Ki is ≥ 3000 nM.

Take `CCNc1ncc(C(=O)N(C)c2cccc(OC(CCNC)c3cccs3)c2)c(N2CCCC2)n1` (stereo not drawn) [Example 30, 2-(Ethylamino)-N-methyl-N-(3-(3-(methylamino)-1-(thiophen-2-yl)propoxy)phenyl)-4-(pyrrolidin-1-yl)pyrimidine-5-carboxamide]: the Ki lay within 500 to 3000 nM.

Take `CNCCC(OCc1cccc(N(C)C(=O)c2ccccc2)c1)c1ccccc1` (stereo not drawn) [Example 31, N-methyl-N-(3-((3-(methylamino)-1-phenylpropoxy)methyl)phenyl)benzamide]: the Ki is ≥ 3000 nM. As for `CNCCC(OCc1cccc(N(C)C(=O)c2cccnc2)c1)c1ccccc1` (stereo not drawn) [Example 32, N-methyl-N-(3-((3-(methylamino)-1-phenylpropoxy)methyl)phenyl)nicotinamide], the Ki is ≥ 3000 nM. For `CNCCC(OCc1cccc(N(C)C(=O)c2cnc(OC)nc2)c1)c1ccccc1` (stereo not drawn) [Example 33, 2-Methoxy-N-methyl-N-(3-((3-(methylamino)-1-phenylpropoxy)methyl)phenyl)pyrimidine-5-carboxamide], the Ki is ≥ 3000 nM.

On to `CNCCC(OCc1cccc(N(C)C(=O)c2cncnc2)c1)c1ccccc1` (stereo not drawn) [Example 34, N-methyl-N-(3-((3-(methylamino)-1-phenylpropoxy)methyl)phenyl)pyrimidine-5-carboxamide], for which the Ki is ≥ 3000 nM. Consider `CNCCC(OCc1cccc(N(C)C(=O)c2cnc(SC)nc2)c1)c1ccccc1` (stereo not drawn) [Example 35, N-methyl-N-(3-((3-(methylamino)-1-phenylpropoxy)methyl)phenyl)-2-(methylthio)pyrimidine-5-carboxamide], for which the Ki is ≥ 3000 nM. As to `CNCCC(OCc1cccc(N(C)C(=O)c2ccccn2)c1)c1ccccc1` (stereo not drawn) [Example 36, N-methyl-N-(3-((3-(methylamino)-1-phenylpropoxy)methyl)phenyl)picolinamide], the Ki was ≥ 3000 nM.

For the compound `CCNc1ncc(C(=O)N(C)c2cccc(COC(CCNC)c3ccccc3)c2)c(N2CCCC2)n1` (stereo not drawn) [Example 37, 2-(Ethylamino)-N-methyl-N-(3-((3-(methylamino)-1-phenylpropoxy)methyl)phenyl)-4-(pyrrolidin-1-yl)pyrimidine-5-carboxamide], the Ki was 500 to 3000 nM. The same measure for `CNCCC(OCc1cccc(NC(=O)c2cccnc2)c1)c1ccccc1` (stereo not drawn) [Example 40, N-(3-((3-(methylamino)-1-phenylpropoxy)methyl)phenyl)nicotinamide]: ≥ 3000 nM; for `CNCCC(OCc1cccc(NC(=O)c2cncnc2)c1)c1ccccc1` (stereo not drawn) [Example 42, N-(3-((3-(methylamino)-1-phenylpropoxy)methyl)phenyl)pyrimidine-5-carboxamide]: ≥ 3000 nM.

With `CNCCC(OCc1cccc(NC(=O)c2cnc(SC)nc2)c1)c1ccccc1` (stereo not drawn) [Example 44, N-(3-((3-(methylamino)-1-phenylpropoxy)methyl)phenyl)-2-(methylthio)pyrimidine-5-carboxamide], the Ki is ≥ 3000 nM. The figure for `CCNc1ncc(C(=O)Nc2cccc(COC(CCNC)c3ccccc3)c2)c(N2CCCC2)n1` (stereo not drawn) [Example 45, 2-(Ethylamino)-N-(3-((3-(methylamino)-1-phenylpropoxy)methyl)phenyl)-4-(pyrrolidin-1-yl)pyrimidine-5-carboxamide] is 500 to 3000 nM; for `CNCCC(OCc1cccc(NC(=O)c2ccccc2N(C)C)c1)c1cccs1` (stereo not drawn) [Example 47, 2-(Dimethylamino)-N-(3-((3-(methylamino)-1-(thiophen-2-yl)propoxy)methyl)phenyl)benzamide] it is ≥ 3000 nM. As for `CCNc1ncc(C(=O)Nc2cccc(COC(CCNC)c3cccs3)c2)c(N2CCCC2)n1` (stereo not drawn) [Example 49, 2-(Ethylamino)-N-(3-((3-(methylamino)-1-(thiophen-2-yl)propoxy)methyl)phenyl)-4-(pyrrolidin-1-yl)pyrimidine-5-carboxamide], the Ki lay within 500 to 3000 nM. With `CCNc1ncc(C(=O)Nc2cccc(OC(CCNC)c3cccs3)c2)c(N2CCCC2)n1` (stereo not drawn) [Example 51, 2-(Ethylamino)-N-(3-(3-(methylamino)-1-(thiophen-2-yl)propoxy)phenyl)-4-(pyrrolidin-1-yl)pyrimidine-5-carboxamide], the Ki was in the range of 500 to 3000 nM. The same measure for `CNCCC(OCc1cccc(NCc2ccccc2)c1)c1ccccc1` (stereo not drawn) [Example 52, N-benzyl-3-((3-(methylamino)-1-phenylpropoxy)methyl)aniline]: ≥ 3000 nM; for `CNCCC(OCc1cccc(NCc2cncnc2)c1)c1ccccc1` (stereo not drawn) [Example 53, 3-((3-(Methylamino)-1-phenylpropoxy)methyl)-N-(pyrimidin-5-ylmethyl)aniline]: ≥ 3000 nM; for `CN(C)CCC(OCc1cccc(NC(=O)c2ccccc2)c1)c1cccs1` (stereo not drawn) [Example 54, N-(3-((3-(dimethylamino)-1-(thiophen-2-yl)propoxy)methyl)phenyl) benzamide]: ≥ 3000 nM. On to `CN(C)CCC(OCc1cccc(NC(=O)c2ccccc2N(C)C)c1)c1cccs1` (stereo not drawn) [Example 55, 2-(Dimethylamino)-N-(3-((3-(dimethylamino)-1-(thiophen-2-yl)propoxy)methyl)phenyl)benzamide], for which the Ki is ≥ 3000 nM.

Take `CCN(Cc1cccc(OC(CCNC)c2cccs2)c1)C(=O)c1ccccc1` (stereo not drawn) [Example 56, N-ethyl-N-(3-(3-(methylamino)-1-(thiophen-2-yl)propoxy)benzyl) benzamide]: the Ki was ≥ 3000 nM. Regarding `CNCCC(OCc1cccc(N(Cc2ccccc2)C(C)=O)c1)c1ccccc1` (stereo not drawn) [Example 57, N-benzyl-N-(3-((3-(methylamino)-1-phenylpropoxy)methyl)phenyl) acetamide], the Ki is ≥ 3000 nM.
